Laboratory results taken from patent US12239629B2 (priority 2020, dated 2025).

Columns and labels:
[1] = Artemether via nasal delivery system in vivo; settings: administered locally via nasal delivery system in vivo
[2] = Dissolution test of Artemether/Lumefantrine-Remdesivir soft gel capsule; format: physicochemical; settings: 0.1 N. HCl with 3% Benzalkonium Chloride
Text: The soft gel capsule of Artemether and Lumefantrine is comprised: Artemether 4 to 5% w/w, Lumefantrine 20-24% w/w, Remdesivir 18-20%, non-aqueous vehicle 15-20% w/w, preservative less than 1% w/w, viscosity imparting agent 15-20% w/w, suspending agent 1 to 5% w/w and emulsifying agent 1 to 3% w/w and a process to manufacture the said preparation comprising of the following steps as given in the above Patent. • (a) Preservatives and Solid Suspending Agents were milled and sifted. • (b) Non-aqueous vehicle, viscosity imparting agent and liquid suspending agents were filtered to remove the foreign particles • (c) Additional steps for mixing preservatives and suspending agents: • (i) Preservatives were dissolved in non-aqueous vehicle; • (ii) Emulsifying agents were warmed and/or melted and added into mixture in (i) above; • (iii) Viscosity imparting agent is added to mixture of (ii) above and the resultant mixture is stirred. • (iv) Suspending agent is added and mixed with the mixture in (iii) above; and • (v) The mixture of (a) above and (c) (iv) above was homogenized. • (d) The mixture in (v) above was the encapsulated in soft gelatin.
Drug dissolution testing is routinely used to provide critical in vitro drug release information for both quality control purposes to predict in vivo drug release profiles.
The media for dissolution test was 0.1 N. HCl with 3% Benzalkonium Chloride.

[3] = cited from earlier work
SARS-CoV2 [4] = experiment: Drug pretreatment of Vero E6 cells prior to SARS-CoV2 infection, indirect immunofluorescence; format: cell-based; settings: pretreatment 18-24 hours prior to virus infection
Protocol: (§1) In carrying out the in vitro experiments, vero E6 cells (an African green monkey kidney cell line) were infected with SARS-CoV2 at a multiplicity of infection of 0.5 for 1 hour. The cells were washed with PBS and then incubated in OPTI-MEM (Invitrogen) medium with or without various concentrations of the following drug candidates: Artemether (from BiopharmaRx) Hydroxychloroquine (from Sigma Aldrich), Atazanavir (from Sigma Aldrich), and Efavirenz (from Sigma Aldrich), Fosamprenavir Calcium (from Sigma Aldrich), Saquinavir (from Sigma Aldrich) and Remdesivir (from AOBIOUS, INC., USA)
(§2) Immunofluorescence staining was performed with SARS-CoV2-specific hyperimmune mouse ascitic fluid (HMAF) followed by anti-mouse fluorescein-coupled antibody.
Experiments were carried out to determine the impact of artemether treatment on SARS-CoV2 infection. Permissive Vero E6 cells were pre-treated with various concentrations of artemether (0.1-50 μM) for 18-24 hours prior to virus infection. Cells were then infected with SARS-CoV2, and virus antigens were visualized by indirect immunofluorescence. For quantitative purposes, we counted the number of cells stained positive from three random locations on a slide. The average number of positively stained control cells was scored as 100% and was compared with the number of positive cells observed under various artemether concentrations. Pretreatment with 0.1, 1, 10, 20, 30, 40 and 50 μM artemether reduced infectivity by 4%, 12%, 32%, 45%, 63%, 92% and 100% respectively. Reproducible results were obtained from three independent experiments.

[5] = Peak Inhibitory Concentration (Threshold) after oral administration
Protocol: It is noted that the Peak Inhibitory Concentration (Threshold) of Artemether and Remdesivir were at 120 minutes after oral administration. The Peak Inhibitory Concentration (Threshold) of Lumefantrine was at 60 minutes after oral administration.

SARS-CoV2 [6] = experiment: In-vitro experiments, time of drug addition relative to infection; format: cell-based; settings: added between 3 hours pre-infection and 3 hours after infection
Protocol: Less inhibition was detected when the drug was added after 12 hours post-infection (Our observation was consistent with the report by Agostini et al regarding GS-5734 (remdesivir) (Agostini M L, Andres E L, Sims A C, Graham R L, Sheahan T P, Lu X, Smith E C, Case J B, Feng J Y, Jordan R, Ray AS, Cihlar T, Siegel D, Mackman R L, Clarke M O, Baric R S, Denison M R. 2018. Coronavirus susceptibility to the antiviral remdesivir (GS-5734) is mediated by the viral polymerase and the proofreading exoribonuclease. mBio 9:e00221-18. https://doi.org/10.1128/mBio.00221-18.).
as §1

SARS-CoV2 [7] = experiment: Drug added to Vero E6 cells immediately after SARS-CoV2 adsorption, indirect immunofluorescence after 24 hours; format: cell-based
Protocol: as §1, §2
The antiviral properties of artemether on SARS-CoV2 after the initiation of infection were studied. Vero E6 cells were infected with the virus and fresh medium supplemented with various concentrations of artemether was added immediately after virus adsorption. Infected cells were incubated for an additional 24 hours, after which the presence of virus antigens was analyzed by indirect immunofluorescence analysis. When artemether was added after the initiation of infection, there was a dramatic dose dependent decrease in the number of virus antigen-positive cells. […] A half-maximal inhibitory effect was estimated to occur at 16.5±1.0 μM artemether. […] (FIG. 2).

[8] = in vivo; cited from earlier work

In the case of “(1R.4S,5R.8S.9R, 10S, 12R, 13R)-10-methoxy-1,5,9-trimethyl-11,14,15,16-tetraoxatetracyclo[10.3. 1.04, 13.08, 13]hexadecane [Artemether]”, the “absorption and bioavailability, nasal vs systemic administration” value [1] is reported as “adsorbed quickly with more bioavailability”, the “% Cumulative Drug Release” value ([2]; 60 minute time frame) is reported as 92.3% and the “% of Drug Release in a Dissolution Test” value ([2]; sample time 30 minute) is reported as 47.3%. For the same substance, the “% of Drug Release in a Dissolution Test” value ([2]; sample time 60 minute) was 72.25%, the “% of Drug Release in a Dissolution Test” value ([2]; sample time 90 minute) was 88.7% and the “% of Drug Release in a Dissolution Test” value ([2]; sample time 120 minute) was 93.8%. The “solubility in water (words)” value [3] was “sparingly soluble”, the reduced infectivity (SARS-CoV2 [4]; 0.1 μM) was 4% and the reduced infectivity (SARS-CoV2 [4]; 1 μM) was 12%. For the same substance, the reduced infectivity (SARS-CoV2 [4]; 10 μM) was 32%, the reduced infectivity (SARS-CoV2 [4]; 20 μM) was 45% and the reduced infectivity (SARS-CoV2 [4]; 30 μM) was 63%. The reduced infectivity (SARS-CoV2 [4]; 40 μM) was 92%, the reduced infectivity (SARS-CoV2 [4]; 50 μM) was 100% and the “time of Peak Inhibitory Concentration (Threshold)” value [5] was 120 min. For the same substance, the “inhibition by time of addition” value (SARS-CoV2 [6]) was “maximal inhibition”, the inhibition (SARS-CoV2 [7]; 40-100 μM concentrations, added after the initiation of infection) was 71-96% and the reduced the infection (SARS-CoV2 [7]; approximately 10 μM added immediately after virus adsorption, 24 hours) was 40%. For the same substance, the IC50 (SARS-CoV2 [7]; drug added immediately after virus adsorption, Vero E6 cells, estimated, read-out: half-maximal inhibitory effect) was 16.5 ± 1 µM.

For Chitosan, the LD50 [8] is listed as > 4000 mg/kg.
